Patent US4767781A, “Derivatives of beta-amino-gamma-trimethylammonio-butyrate and their production and use” (Takeda Chemical Industries, Ltd., priority 1981, dated 1988)
Structures can show the parent of a compound that is named as a salt.

Tests used:
[1] = system: fatty acid degradation which depends on carnitine added (rat liver homogenates); test: Inhibition of carnitine-dependent fatty acid degradation (14CO2 from 1-14C palmitic acid) in rat liver homogenate; format: biochemical, rat (SD, male)
Procedure: Then, the fatty acid degradation inhibiting activity of the compound (I), (III), (IV) was determined in accordance with the method described in P.75 "Metabolism of Lipids" which is Vol. 9 of "Seikagaku Jikken Koza" (Text of Biochemical Experiments)compiled by Tokyo Kagaku Dojin, published 1975, using rat liver homogenates. Thus, an SD strain rat (6 weeks of age, male) was fasted for one day and, then, bled to death. The liver was immediately excised and homogenized with 10 times (w/v) of a 0.25 M sucrose solution containing a 5 mM Tris-HCl buffer (pH 7.4), 0.1 mM EDTA and 1 mg/ml bovine serum albumin using a Teflon rod homogenizer. The homogenate was centrifuged at 820 ×g for 10 minutes and the supernatant was further centrifuged at 8,000 ×g for 10 minutes. The resultant pellets were suspended in the same sucrose solution as above to a concentration of 0.2 g wet liver weight/0.5 ml solution and 0.5 ml of the suspension was used as the enzyme solution in the reacrion. […] The inhibitory activity is shown as percentage of inhibitory activity to degradation activity of fatty acid facilitated by the addition of carnitine to that of not added of the compound.

[2] = system: ketone bodies (β-hydroxybutyrate) in blood; test: Antiketogenic activity in fasted rats (blood β-hydroxybutyrate); format: in vivo, rat (male Sprague-Dawley); settings: % of control rats; 50 mg/kg oral, 4 hours after dosing, 20 h fasted, n = 5
Procedure: Antiketogenic activities of derivatives of β-amino-γ-trimethylammonio-butyrate were measured as follows: […] Blood […] 4 hours later from a vein of tail and ketone bodies were measured as β-hydroxybutyrate according to the modified method of Williamson [D. H. Williamson et al.; Methods of Enzymatic Analysis, P454 (1968), Academic Press, New York]. The amount of ketone bodies was shown as a relative amount of β-hydroxybutyrate (percentage) to the amount of p-hydroxybutyrate in blood of control rats.

[3] = Stability in aqueous solution; format: physicochemical; settings: pH 3 to 9, 100° C., 10 minutes
[4] = Solubilities; format: physicochemical
[5] = concentration of drug 2 mM, R2 = --OH
[6] = in petroleum ether, hexane, diethyl ether, benzene, ethyl acetate, chloroform
[7] = in pyridine, acetone, dimethyl sulfoxide, dimethylformamide

Compound | Inhibition (%) ([1]; concentration of drug 0.2 mM) | Inhibition (%) [1, 5] [%] | relative amount of β-hydroxybutylate (%) [2] [%] | Inhibition (%) ([1]; concentration of drug 2 μM) | Inhibition (%) ([1]; concentration of drug 20 μM) | other results
CN[C@H](CC(=O)[O-])C[N+](C)(C)C [--CH3, [(R)-2-methylammonio-3-carboxypropyl]trimethylammonium . dichloride] | 89 | 100 | 19.9 | – | – | –
CCCC(=O)N[C@H](CC(=O)[O-])C[N+](C)(C)C [--CO(CH2)2 CH3, [(R)-3-carboxy-2-n-butyrylaminopropyl]trimethylammonium picrate] | – | 50 | – | – | – | –
CCCCCCCCCCCCCC(=O)N[C@H](CC(=O)[O-])C[N+](C)(C)C [--CO(CH2)12 CH3, (R)-3-myristoylamino-4-trimethylammoniobutyrate] | – | – | 7.9 | – | – | –
CCCCCCCCCCCCCCCC(=O)N[C@H](CC(=O)[O-])C[N+](C)(C)C [--CO(CH2)14 CH3, (R)-3-palmitoylamino-4-trimethylammoniobutyrate] | – | – | 6.7 | 100 | 100 | –
CCC(=O)N[C@H](CC(=O)O)C[N+](C)(C)C.[Cl-] [--COCH2 CH3, [(R)-3-carboxy-2-propionylaminopropyl]trimethylammonium chloride] | – | 44 | – | – | – | –
CC(=O)N[C@@H](CC(=O)O)C[N+](C)(C)C.[Cl-] [--COCH3 (D-), [(S)-2-acetylamino-3-carboxypropyl]trimethylammonium chloride] | 2 | 28 | – | – | – | –
C[N+](C)(C)C[C@@H](CC(=O)[O-])NC=O [--COH, [(R)-3-carboxy-2-formylaminopropyl]trimethylammonium picrate] | 53 | 84 | 75.7 | – | – | –
C[N+](C)(C)C[C@@H](CC(=O)O)NC(N)=O.[Cl-] [--CONH2, [(R)-3-carboxy-2-carbamoylaminopropyl]trimethylammonium chloride] | 34 | 72 | 63.2 | – | – | –
C[N+](C)(C)C[C@@H](CC(=O)[O-])NC(=O)OCc1ccccc1 [--COOCH2 C6 H5, (R)-3-benzyloxycarbonylamino-4-trimethylammoniobutyrate] | 85 | 98 | 19.7 | – | – | –
C[N+](C)(C)C[C@@H](N)CC(=O)O.Cl.[Cl-] [--H (D-), [(S)-2-ammonio-3-carboxypropyl]trimethylammonium dichloride] | 11 | 36 | – | – | – | –
C[N+](C)(C)C[C@H](N)CC(N)=O [--NH2, [(R)-2-ammonio-3-carbamoylpropyl]trimethylammonium dipicrate] | 67 | – | – | 10 | 27 | –
CCCOC(=O)C[C@@H](N)C[N+](C)(C)C [--O(CH2)2 CH3, [(R)-2-ammonio-3-carbopropoxypropyl]trimethylammonium dipicrate] | – | – | – | 41 | 69 | –
CCOC(=O)C[C@@H](N)C[N+](C)(C)C [--OCH2 CH3, [(R)-2-ammonio-3-carboethoxypropyl]trimethylammonium monochloride monopicrate] | – | – | 5.9 | 37 | 85 | –
COC(=O)C[C@@H](N)C[N+](C)(C)C [--OCH3, [(R)-2-ammonio-3-carbomethoxypropyl]trimethylammonium dipicrate] | – | – | – | 26 | 73 | –
CC(=O)N[C@H](CC(=O)[O-])C[N+](C)(C)C [FA-5859.hydrochloride] | – | – | – | – | – | Stability [3]: stable; Solubility ([4]; in ethanol, methanol): Soluble; Solubility [4, 6]: Insoluble; Solubility [4, 7]: Hardly soluble; Solubility ([4]; in water): Readily soluble
CC(=O)N[C@H](CC(=O)[O-])C[N+](C)(C)C [FA-5859] | – | – | – | – | – | Stability [3]: Stable; Solubility ([4]; in ethanol, methanol): Soluble; Solubility [4, 6]: Insoluble; Solubility [4, 7]: Hardly soluble; Solubility ([4]; in water): Readily soluble
